According to ChEMBL document CHEMBL4619795, “Establishing the Structure-Activity Relationship of Daptomycin” (ACS Med Chem Lett, 2020):

What was measured:
Type in all cases: functional
Staphylococcus aureus [1] = experiment: Antibacterial activity against methicillin-resistant Staphylococcus aureus 88 assessed as bacterial growth inhibition in presence of 50 ug/ml calcium ions by CLSI protocol based broth microdilution method
Staphylococcus aureus [2] = experiment: Antibacterial activity against methicillin-resistant Staphylococcus aureus 14 assessed as bacterial growth inhibition in presence of 50 ug/ml calcium ions by CLSI protocol based broth microdilution method
Enterococcus [3] = experiment: Antibacterial activity against Enterococcus 60 assessed as bacterial growth inhibition in presence of 50 ug/ml calcium ions by CLSI protocol based broth microdilution method
Enterococcus faecalis [4] = experiment: Antibacterial activity against Enterococcus faecalis ATCC 29212 assessed as bacterial growth inhibition in presence of 50 ug/ml calcium ions by CLSI protocol based broth microdilution method
Enterococcus faecalis [5] = experiment: Antibacterial activity against Streptococcus faecalis assessed as bacterial growth inhibition in presence of 50 ug/ml calcium ions by CLSI protocol based broth microdilution method
Staphylococcus aureus [6] = experiment: Antibacterial activity against methicillin-resistant Staphylococcus aureus 11 assessed as bacterial growth inhibition in presence of 50 ug/ml calcium ions by CLSI protocol based broth microdilution method
Staphylococcus aureus [7] = experiment: Antibacterial activity against methicillin-resistant Staphylococcus aureus 86 assessed as bacterial growth inhibition in presence of 50 ug/ml calcium ions by CLSI protocol based broth microdilution method
Enterococcus [8] = experiment: Antibacterial activity against Enterococcus 6 assessed as bacterial growth inhibition in presence of 50 ug/ml calcium ions by CLSI protocol based broth microdilution method
Staphylococcus aureus [9] = experiment: Antibacterial activity against Staphylococcus aureus ATCC 29213 assessed as bacterial growth inhibition in presence of 50 ug/ml calcium ions by CLSI protocol based broth microdilution method

| SMILES | MIC (Staphylococcus aureus [1]) [mg/L] | MIC (Staphylococcus aureus [2]) [mg/L] | MIC (Enterococcus [3]) [mg/L] | MIC (Enterococcus faecalis [4]) [mg/L] | MIC (Enterococcus faecalis [5]) [mg/L] | MIC (Staphylococcus aureus [6]) [mg/L] | MIC (Staphylococcus aureus [7]) [mg/L] | MIC (Enterococcus [8]) [mg/L] | MIC (Staphylococcus aureus [9]) [mg/L] |
| --- | --- | --- | --- | --- | --- | --- | --- | --- | --- |
| CCCCCCCCCC(=O)N[C@@H](Cc1c[nH]c2ccccc12)C(=O)N[C@@H](CC(N)=O)C(=O)N[C@@H](CC(=O)O)C(=O)N[C@@H]1C(=O)NCC(=O)N[C@@H](CCCN)C(=O)N[C@@H](CC(=O)O)C(=O)N[C@H](C)C(=O)N[C@@H]([C@H](C)CC(=O)O)C(=O)NCC(=O)N[C@H](CO)C(=O)N[C@@H](CC(=O)O)C(=O)N[C@@H](CC(=O)c2ccccc2N)C(=O)O[C@@H]1C | ≥ 32 | ≥ 32 | ≥ 32 | ≥ 32 | ≥ 32 | ≥ 32 | ≥ 32 | ≥ 32 | ≥ 32 |
| CCCCCCCCCC(=O)N[C@@H](Cc1c[nH]c2ccccc12)C(=O)N[C@@H](CC(N)=O)C(=O)N[C@@H](CC(=O)O)C(=O)N[C@@H]1C(=O)NCC(=O)N[C@@H](Cc2c[nH]cn2)C(=O)N[C@@H](CC(=O)O)C(=O)N[C@H](C)C(=O)N[C@@H](CC(=O)O)C(=O)NCC(=O)N[C@H](CO)C(=O)N[C@@H]([C@@H](C)CC(=O)O)C(=O)N[C@@H](CC(=O)c2ccccc2N)C(=O)O[C@@H]1C | 8 | 16 | ≥ 32 | ≥ 32 | ≥ 32 | 16 | 8 | ≥ 32 | 8 |
| CCCCCCCCCC(=O)N[C@@H](Cc1c[nH]c2ccccc12)C(=O)N[C@@H](CC(N)=O)C(=O)N[C@@H](CC(=O)O)C(=O)N[C@@H]1C(=O)NCC(=O)N[C@@H](CCCN)C(=O)N[C@@H](CC(=O)O)C(=O)N[C@H](C)C(=O)N[C@@H](CC(=O)O)C(=O)NCC(=O)N[C@H](CO)C(=O)N[C@@H](C)C(=O)N[C@@H](CC(=O)c2ccccc2N)C(=O)O[C@@H]1C | ≥ 64 | ≥ 64 | ≥ 64 | ≥ 64 | ≥ 64 | ≥ 64 | ≥ 64 | ≥ 64 | ≥ 64 |
| CCCCCCCCCC(=O)N[C@@H](Cc1c[nH]c2ccccc12)C(=O)N[C@@H](CC(N)=O)C(=O)N[C@@H](CC(=O)O)C(=O)N[C@@H]1C(=O)NCC(=O)N[C@@H](CCCN)C(=O)N[C@@H](CCC(=O)O)C(=O)N[C@H](C)C(=O)N[C@@H](CCC(=O)O)C(=O)NCC(=O)N[C@H](CO)C(=O)N[C@@H]([C@@H](C)CC(=O)O)C(=O)N[C@@H](CC(=O)c2ccccc2N)C(=O)O[C@@H]1C | ≥ 32 | ≥ 32 | ≥ 32 | ≥ 32 | ≥ 32 | ≥ 32 | ≥ 32 | ≥ 32 | ≥ 32 |
| CCCCCCCCCC(=O)N[C@@H](Cc1c[nH]c2ccccc12)C(=O)N[C@@H](CC(N)=O)C(=O)N[C@@H](CC(=O)O)C(=O)N[C@@H]1C(=O)NCC(=O)N[C@@H](CSSC[C@@H]2NC(=O)CNC(=O)[C@@H](NC(=O)[C@H](CC(=O)O)NC(=O)[C@H](CC(N)=O)NC(=O)[C@H](Cc3c[nH]c4ccccc34)NC(=O)CCCCCCCCC)[C@@H](C)OC(=O)[C@H](CC(=O)c3ccccc3N)NC(=O)[C@H]([C@@H](C)CC(=O)O)NC(=O)[C@@H](CO)NC(=O)CNC(=O)[C@H](CC(=O)O)NC(=O)[C@@H](C)NC(=O)[C@H](CC(=O)O)NC2=O)C(=O)N[C@@H](CC(=O)O)C(=O)N[C@H](C)C(=O)N[C@@H](CC(=O)O)C(=O)NCC(=O)N[C@H](CO)C(=O)N[C@@H]([C@@H](C)CC(=O)O)C(=O)N[C@@H](CC(=O)c2ccccc2N)C(=O)O[C@@H]1C | 16 | 4 | 16 | 16 | 4 | 8 | 8 | 16 | 16 |
| C#Cc1ccc(C(=O)N[C@@H](Cc2c[nH]c3ccccc23)C(=O)N[C@@H](CC(N)=O)C(=O)N[C@@H](CC(=O)O)C(=O)N[C@@H]2C(=O)NCC(=O)N[C@@H](CCCN)C(=O)N[C@@H](CC(=O)O)C(=O)N[C@H](C)C(=O)N[C@@H](CC(=O)O)C(=O)NCC(=O)N[C@H](CO)C(=O)N[C@@H]([C@@H](C)CC(=O)O)C(=O)N[C@@H](CC(=O)c3ccccc3N)C(=O)O[C@@H]2C)cc1 | ≥ 32 | ≥ 32 | ≥ 32 | ≥ 32 | ≥ 32 | ≥ 32 | ≥ 32 | ≥ 32 | ≥ 32 |
| CCCCCCCCCC(=O)N[C@@H](Cc1c[nH]c2ccccc12)C(=O)N[C@@H](CC(N)=O)C(=O)N[C@@H](CC(=O)O)C(=O)N[C@@H]1C(=O)NCC(=O)N[C@@H](CCCN)C(=O)N[C@@H](CC(=O)O)C(=O)N[C@H](C)C(=O)N[C@H](CC(=O)O)C(=O)NCC(=O)N[C@H](CO)C(=O)N[C@@H]([C@@H](C)CC(=O)O)C(=O)N[C@@H](CC(=O)c2ccccc2N)C(=O)O[C@@H]1C | 16 | ≥ 32 | ≥ 32 | ≥ 32 | ≥ 32 | ≥ 32 | 16 | ≥ 32 | 16 |
